Experimental data from patent US20240174637A1, “DEGRADERS OF GRK2 AND USES THEREOF” (Sonata Therapeutics, Inc., priority 2021, published 2024).

What was measured:
Assay type in all cases: cell-based
GRK2 = target: T1, GRK2 (Homo sapiens, UniProt P25098); assay: GRK2 Degradation Assay and Western Blot in PAXF1657 cells; parameters: endogenous in cells; host or cells: PAXF1657; settings: PAXF1657 EV, 24 hrs; for inhibition at 1 µM: read-out: % GRK2 degradation at 1 uM in PAXF1657 EV (24 hrs)
T1 sequence (P25098 1-689): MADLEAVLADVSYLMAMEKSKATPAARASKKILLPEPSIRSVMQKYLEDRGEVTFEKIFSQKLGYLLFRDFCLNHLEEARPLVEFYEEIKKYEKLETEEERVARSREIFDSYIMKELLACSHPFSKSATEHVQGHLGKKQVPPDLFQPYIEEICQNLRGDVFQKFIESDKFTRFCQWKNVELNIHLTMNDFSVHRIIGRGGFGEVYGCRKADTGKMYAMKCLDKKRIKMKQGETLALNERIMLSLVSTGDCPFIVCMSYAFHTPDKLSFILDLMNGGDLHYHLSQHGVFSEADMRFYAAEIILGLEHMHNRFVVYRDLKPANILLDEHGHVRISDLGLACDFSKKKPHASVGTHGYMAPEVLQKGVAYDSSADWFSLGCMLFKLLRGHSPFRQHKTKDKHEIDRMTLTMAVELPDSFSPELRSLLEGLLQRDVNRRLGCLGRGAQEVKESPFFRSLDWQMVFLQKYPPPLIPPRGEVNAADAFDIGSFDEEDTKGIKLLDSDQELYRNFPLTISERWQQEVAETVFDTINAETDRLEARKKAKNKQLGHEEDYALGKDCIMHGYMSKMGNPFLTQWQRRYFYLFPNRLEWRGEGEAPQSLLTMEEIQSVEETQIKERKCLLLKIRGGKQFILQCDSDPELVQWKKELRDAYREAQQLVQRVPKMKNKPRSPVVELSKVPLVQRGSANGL
Summary of the method: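 PAXF1657 cells grown to 70% confluency, then treated with compounds at 0–10 μM for 6 to 24 h at 37 °C. Lysates in PBS with 1% NP40 run on SDS-PAGE. GRK2 protein detected by western blot with β-actin as loading reference, using ECL chemiluminescence.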

PAXF1657 EV = assay: 7-day cellular proliferation assay (CellTiter-Glo), PAXF1657 EV; settings: 168 h, 7-day, read-out: 7-day proliferation assay: IC50 GeoMean (uM) [Cell Line: PAXF1657 EV]
Summary of the method: (§1)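 Seven-day growth in PAXF1657 lines engineered for GRK2 overexpression or knockout, measured by CellTiter-Glo; compounds tested at 30 μM-0.0002 μM final and replenished once at day 3.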

PAXF1657 KO Clone #4 = assay: 7-day cellular proliferation assay (CellTiter-Glo), PAXF1657 KO Clone #4; settings: 168 h, 7-day, read-out: 7-day proliferation assay: IC50 GeoMean (uM) [Cell Line: PAXF1657 KO Clone #4]
Summary of the method: as §1

| inhibition at 1 µM (GRK2) | % GRK2 degradation at 10 uM in PAXF1657 EV (24 hrs) (GRK2) | Compound | IC50 (PAXF1657 EV) | IC50 (PAXF1657 KO Clone #4) |
| --- | --- | --- | --- | --- |
| 22% | 39% | Cc1ncsc1-c1ccc(CNC(=O)[C@@H]2C[C@@H](O)CN2C(=O)[C@@H](NC(=O)COCCOCCOCCOCCOCCOCCCCCCOc2cccc(CNC(=O)c3cccc(NCc4nnc(-c5ccncn5)n4C)c3)c2)C(C)(C)C)cc1 [Compound D100] | > 10 µM | > 10 µM |
| 18% | 10% | Cc1ncsc1-c1ccc(CNC(=O)[C@@H]2C[C@@H](O)CN2C(=O)[C@@H](NC(=O)COCCOCCCCCCOc2cccc(CNC(=O)c3cccc(NCc4nnc(-c5ccncn5)n4C)c3)c2)C(C)(C)C)cc1 [Compound D101] | < 1 µM | 1 to 10 µM |
